# Target: T1, CaV2.2 (Homo sapiens, UniProt Q00975)
# T1 construct: expressed in transfected cells; host or cells: HEK293
# Assay: VIPR optical membrane potential assay with electrical stimulation
# Assay type: cell-based
# Conditions: not given
# In short: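 HEK293 cells stably expressing CaV2.2, stained with CC2-DMPE (10 μM final) and oxonol voltage-sensitive dyes, compound added with BaCl2. Membrane potential response evoked by 3-5 s electrical stimulation. Read as background-subtracted 460/580 nm emission ratio, response R=Rf/Ri, normalized to mibefradil positive and no-drug negative controls.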
# T1 sequence (Q00975 whole entry): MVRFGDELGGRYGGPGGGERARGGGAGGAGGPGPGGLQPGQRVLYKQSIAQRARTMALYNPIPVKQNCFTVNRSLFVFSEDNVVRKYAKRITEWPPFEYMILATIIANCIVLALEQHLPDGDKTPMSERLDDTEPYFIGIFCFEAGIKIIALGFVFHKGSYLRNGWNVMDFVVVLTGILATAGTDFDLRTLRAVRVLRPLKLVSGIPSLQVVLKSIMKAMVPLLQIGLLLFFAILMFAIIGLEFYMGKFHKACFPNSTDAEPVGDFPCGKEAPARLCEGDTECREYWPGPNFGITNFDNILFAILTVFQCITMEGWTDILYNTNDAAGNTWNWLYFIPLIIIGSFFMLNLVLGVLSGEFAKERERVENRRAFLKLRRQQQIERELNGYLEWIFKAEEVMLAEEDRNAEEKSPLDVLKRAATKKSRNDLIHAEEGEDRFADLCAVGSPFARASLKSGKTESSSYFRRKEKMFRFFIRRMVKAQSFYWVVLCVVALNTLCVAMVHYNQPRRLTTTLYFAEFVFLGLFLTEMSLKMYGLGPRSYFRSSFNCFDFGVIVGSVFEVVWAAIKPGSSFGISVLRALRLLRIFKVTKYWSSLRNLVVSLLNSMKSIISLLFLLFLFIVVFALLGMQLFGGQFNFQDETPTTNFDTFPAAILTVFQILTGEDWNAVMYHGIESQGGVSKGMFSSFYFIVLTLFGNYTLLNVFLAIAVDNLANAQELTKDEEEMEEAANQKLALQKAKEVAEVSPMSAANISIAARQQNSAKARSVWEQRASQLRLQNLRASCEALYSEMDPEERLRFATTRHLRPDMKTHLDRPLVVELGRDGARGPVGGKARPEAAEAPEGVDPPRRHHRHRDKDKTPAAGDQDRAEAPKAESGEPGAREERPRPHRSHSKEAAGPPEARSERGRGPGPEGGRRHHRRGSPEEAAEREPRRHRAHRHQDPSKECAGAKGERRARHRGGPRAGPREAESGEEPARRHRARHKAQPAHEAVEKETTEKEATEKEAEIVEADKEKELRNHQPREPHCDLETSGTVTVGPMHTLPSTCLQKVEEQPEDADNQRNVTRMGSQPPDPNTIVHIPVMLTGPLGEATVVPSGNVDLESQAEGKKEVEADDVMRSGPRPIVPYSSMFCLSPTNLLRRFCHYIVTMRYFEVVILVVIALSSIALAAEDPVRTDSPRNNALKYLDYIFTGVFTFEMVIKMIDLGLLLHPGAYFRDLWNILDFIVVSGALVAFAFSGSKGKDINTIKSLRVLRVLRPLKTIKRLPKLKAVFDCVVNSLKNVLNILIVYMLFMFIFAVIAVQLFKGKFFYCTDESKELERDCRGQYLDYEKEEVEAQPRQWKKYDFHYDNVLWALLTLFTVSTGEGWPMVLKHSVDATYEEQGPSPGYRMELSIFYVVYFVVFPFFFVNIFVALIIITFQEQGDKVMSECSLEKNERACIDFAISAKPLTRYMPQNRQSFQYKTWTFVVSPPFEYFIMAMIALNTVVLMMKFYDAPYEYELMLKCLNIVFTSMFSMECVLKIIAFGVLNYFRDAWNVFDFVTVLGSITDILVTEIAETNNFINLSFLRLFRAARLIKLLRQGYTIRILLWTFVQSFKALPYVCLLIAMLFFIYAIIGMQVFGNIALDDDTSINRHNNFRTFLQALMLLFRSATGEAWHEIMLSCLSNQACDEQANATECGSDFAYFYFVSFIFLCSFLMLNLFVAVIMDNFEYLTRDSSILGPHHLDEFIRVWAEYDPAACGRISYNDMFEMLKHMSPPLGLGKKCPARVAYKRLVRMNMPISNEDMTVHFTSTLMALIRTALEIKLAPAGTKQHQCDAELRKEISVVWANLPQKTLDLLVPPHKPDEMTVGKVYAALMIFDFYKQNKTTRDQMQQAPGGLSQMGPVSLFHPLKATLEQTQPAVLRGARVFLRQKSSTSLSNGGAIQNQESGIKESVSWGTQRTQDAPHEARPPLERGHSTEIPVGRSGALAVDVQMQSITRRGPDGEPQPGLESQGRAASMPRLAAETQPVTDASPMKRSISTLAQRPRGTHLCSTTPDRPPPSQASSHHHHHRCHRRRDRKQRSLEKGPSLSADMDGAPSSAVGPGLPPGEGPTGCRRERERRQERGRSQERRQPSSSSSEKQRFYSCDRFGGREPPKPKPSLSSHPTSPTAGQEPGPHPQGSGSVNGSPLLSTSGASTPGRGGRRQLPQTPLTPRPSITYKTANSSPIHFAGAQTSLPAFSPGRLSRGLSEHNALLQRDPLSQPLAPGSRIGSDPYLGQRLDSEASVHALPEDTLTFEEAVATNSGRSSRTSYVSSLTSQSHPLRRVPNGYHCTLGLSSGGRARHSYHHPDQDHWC
# T1 sequence (P54284 whole entry partner): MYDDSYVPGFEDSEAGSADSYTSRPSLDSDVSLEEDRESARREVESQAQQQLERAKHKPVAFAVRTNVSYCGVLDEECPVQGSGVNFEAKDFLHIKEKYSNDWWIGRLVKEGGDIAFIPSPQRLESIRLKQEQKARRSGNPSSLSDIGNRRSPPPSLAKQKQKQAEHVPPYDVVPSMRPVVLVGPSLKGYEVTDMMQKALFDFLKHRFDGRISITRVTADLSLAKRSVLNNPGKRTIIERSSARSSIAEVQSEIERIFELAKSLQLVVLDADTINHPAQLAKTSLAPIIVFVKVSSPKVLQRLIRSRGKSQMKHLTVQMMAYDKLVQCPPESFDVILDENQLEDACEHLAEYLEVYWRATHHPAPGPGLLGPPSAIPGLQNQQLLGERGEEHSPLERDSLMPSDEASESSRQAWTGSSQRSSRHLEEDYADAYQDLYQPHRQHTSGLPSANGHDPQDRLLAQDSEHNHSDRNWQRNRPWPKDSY
# T1 sequence (P54289 25-946 partner limits assumed): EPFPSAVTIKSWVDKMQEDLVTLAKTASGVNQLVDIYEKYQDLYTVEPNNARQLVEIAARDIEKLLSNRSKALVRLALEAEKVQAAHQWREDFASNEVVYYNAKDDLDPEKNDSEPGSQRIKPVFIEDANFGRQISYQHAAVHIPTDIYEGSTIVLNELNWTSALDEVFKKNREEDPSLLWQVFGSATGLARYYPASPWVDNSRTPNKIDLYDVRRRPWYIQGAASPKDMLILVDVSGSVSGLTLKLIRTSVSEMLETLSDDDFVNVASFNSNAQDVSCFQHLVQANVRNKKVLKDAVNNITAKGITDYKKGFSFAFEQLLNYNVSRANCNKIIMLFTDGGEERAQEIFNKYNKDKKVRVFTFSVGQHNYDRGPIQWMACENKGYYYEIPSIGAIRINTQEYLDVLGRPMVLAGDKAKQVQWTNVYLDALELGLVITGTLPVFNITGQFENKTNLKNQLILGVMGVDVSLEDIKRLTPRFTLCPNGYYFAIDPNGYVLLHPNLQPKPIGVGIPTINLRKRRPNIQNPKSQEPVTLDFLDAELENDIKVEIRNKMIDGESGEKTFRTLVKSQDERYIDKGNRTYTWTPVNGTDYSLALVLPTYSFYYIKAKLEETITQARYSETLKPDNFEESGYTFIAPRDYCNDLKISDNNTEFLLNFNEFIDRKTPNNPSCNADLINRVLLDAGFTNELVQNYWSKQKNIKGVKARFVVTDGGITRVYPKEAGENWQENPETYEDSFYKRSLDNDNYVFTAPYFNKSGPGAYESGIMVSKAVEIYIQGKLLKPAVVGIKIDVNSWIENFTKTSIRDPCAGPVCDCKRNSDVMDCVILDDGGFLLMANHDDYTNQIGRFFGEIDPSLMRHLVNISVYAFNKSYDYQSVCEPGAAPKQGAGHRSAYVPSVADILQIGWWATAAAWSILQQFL
# T1 sequence (P54289 947-1103 partner limits assumed): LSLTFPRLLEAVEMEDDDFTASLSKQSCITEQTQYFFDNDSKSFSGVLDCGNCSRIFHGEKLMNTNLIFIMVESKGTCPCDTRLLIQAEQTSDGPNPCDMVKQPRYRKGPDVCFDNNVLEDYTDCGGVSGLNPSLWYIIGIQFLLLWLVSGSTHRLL
row,SMILES,IC50 [µM]
1,O=C(c1cc2cc(S(=O)(=O)N3CCCCCC3)ccc2[nH]1)N1CCC2(CC1)OCCO2 [compound 252],5 to 20
2,Cc1c(C(=O)N2CCC3(CC2)OCCO3)oc2ccc(S(=O)(=O)N3CCCC(C)C3)cc12 (centres unmarked) [compound 299],5 to 20
3,Cc1c(C(=O)N2CCC3(CC2)OCCO3)oc2ccc(S(=O)(=O)N3CCCCC3)cc12 [compound 173],5 to 20

# Same assay, conditions: Table 3, biological assay data; read-out: IC50
row,SMILES,IC50 [µM]
1,O=C(NCC1CCOCC1)c1cc2cc(S(=O)(=O)N3CCCCCC3)ccc2[nH]1 [compound 418],< 5
2,CC1CCN(S(=O)(=O)c2ccc3[nH]c(C(=O)NC(C)C)cc3c2)CC1 [compound 142],< 5
3,Cc1c(C(=O)NC2CCCC2)n(C)c2ccc(S(=O)(=O)N3CCC(C)CC3)cc12 [compound 174],< 5
4,CC1CCN(S(=O)(=O)c2ccc3[nH]c(C(=O)NCC4CCCO4)cc3c2)CC1 (centres unmarked) [compound 407],< 5
5,O=C(NC1CC1)c1cc2cc(NS(=O)(=O)c3ccccc3)ccc2[nH]1 [compound 428],< 20
6,CCNC(=O)c1cc2cc(S(=O)(=O)N3CCCCCC3)ccc2o1 [compound 265],5 to 20
7,Cc1c(C(=O)N(C)Cc2ccccc2)oc2ccc(S(=O)(=O)N3CCCCCC3)cc12 [compound 317],< 5
8,Cc1c(C(=O)NCCN2CCOCC2)oc2ccc(S(=O)(=O)N3CCCCCC3)cc12 [compound 114],5 to 20
9,CC1CC(C)CN(S(=O)(=O)c2ccc3oc(C(=O)N4CCCCC4)cc3c2)C1 (centres unmarked) [compound 100],< 5
10,Cc1c(C(=O)N2CCCCC2)[nH]c2ccc(S(=O)(=O)N3CC(C)CC(C)C3)cc12 (centres unmarked) [compound 440],< 5
11,Cc1c(C(=O)NC2CCCc3ccccc32)oc2ccc(S(=O)(=O)N3CCOCC3)cc12 (centres unmarked) [compound 109],< 20
12,O=C(NC1CC1)c1cc2cc(N(CC3CC3)S(=O)(=O)c3ccccc3)ccc2[nH]1 [compound 105],5 to 20
13,Cc1c(C(=O)N2CCCCC2)oc2ccc(S(=O)(=O)N3CCOCC3)cc12 [compound 65],< 20
14,CC1CC(C)CN(S(=O)(=O)c2ccc3oc(C(=O)NC4CCCCC4)cc3c2)C1 (centres unmarked) [compound 455],< 5
15,Cc1c(C(=O)NCCCc2ccccc2)oc2ccc(S(=O)(=O)N3CCCC(C)C3)cc12 (centres unmarked) [compound 401],< 5
16,CC1CCN(S(=O)(=O)c2ccc3cc(C(=O)NC4CC4)[nH]c3c2)CC1 [compound 139],5 to 20
17,Cc1c(C(=O)NCCCN2CCCC2=O)oc2ccc(S(=O)(=O)N3CC(C)CC(C)C3)cc12 (centres unmarked) [compound 134],5 to 20
18,CC1CC(C)CN(S(=O)(=O)c2ccc3oc(C(=O)NCCc4ccccc4)cc3c2)C1 (centres unmarked) [compound 2],< 5
19,CC1CCN(S(=O)(=O)c2ccc3oc(C(=O)NCCc4ccccc4)cc3c2)CC1 [compound 97],5 to 20
20,CCN(CC)C(=O)c1oc2ccc(S(=O)(=O)N3CCC(C)CC3)cc2c1C [compound 15],5 to 20
21,CC1CC(C)CN(S(=O)(=O)c2ccc3[nH]c(C(=O)N4CCCCC4)cc3c2)C1 (centres unmarked) [compound 389],< 5
22,Cc1c(C(=O)N2CCCCC2)oc2ccc(S(=O)(=O)N3CCC(C)CC3)cc12 [compound 460],5 to 20
23,CCN(CC)C(=O)c1cc2cc(S(=O)(=O)N3CCCCCC3)ccc2o1 [compound 1],5 to 20
24,CC1CCN(C(=O)c2cc3cc(S(=O)(=O)N4CC(C)CC(C)C4)ccc3o2)CC1 (centres unmarked) [compound 339],< 5
25,CCNC(=O)c1cc2cc(S(=O)(=O)N3CC(C)CC(C)C3)ccc2[nH]1 (centres unmarked) [compound 384],< 5
26,CNC(=O)c1[nH]c2ccc(S(=O)(=O)N3CCC(C)CC3)cc2c1C [compound 30],5 to 20

row,SMILES,IC50 [µM]
1,Cc1c(C(=O)N2CCCCC2C)oc2ccc(S(=O)(=O)N3CCCCCC3)cc12 (centres unmarked) [compound 334],5 to 20
2,Cc1c(C(=O)NCc2ccccc2)[nH]c2ccc(S(=O)(=O)N3CC(C)CC(C)C3)cc12 (centres unmarked) [compound 283],< 5
3,Cc1c(C(=O)N2CCCCC2)oc2ccc(S(=O)(=O)N3CCCCC3)cc12 [compound 64],5 to 20
4,CCN(CC)C(=O)c1oc2ccc(S(=O)(=O)N3CCCCC3)cc2c1C [compound 202],5 to 20
5,Cc1c(C(=O)N2CCC(C)CC2)oc2ccc(S(=O)(=O)N3CCC(C)CC3)cc12 [compound 128],5 to 20
6,Cc1c(C(=O)N(C)Cc2ccccc2)oc2ccc(S(=O)(=O)N3CCCCC3)cc12 [compound 93],< 5
7,CC1CC(C)CN(S(=O)(=O)c2ccc3c(c2)cc(C(=O)NCc2ccccc2)n3S(=O)(=O)c2ccccc2)C1 (centres unmarked) [compound 452],< 5
8,CC1CC(C)CN(S(=O)(=O)c2ccc3oc(C(=O)N4CCCC4)cc3c2)C1 (centres unmarked) [compound 184],< 5
9,Cc1c(C(=O)N2CCOCC2)oc2ccc(S(=O)(=O)N3CCCCC3)cc12 [compound 372],< 20
10,CCN(CC)C(=O)c1[nH]c2ccc(S(=O)(=O)N3CC(C)CC(C)C3)cc2c1C (centres unmarked) [compound 7],< 5
11,CC1CC(C)CN(S(=O)(=O)c2ccc3oc(C(=O)N(C(C)C)C(C)C)cc3c2)C1 (centres unmarked) [compound 137],< 5
12,CCN(CC)C(=O)c1oc2ccc(S(=O)(=O)N3CCOCC3)cc2c1C [compound 162],< 20
13,COc1ccccc1CNC(=O)c1oc2ccc(S(=O)(=O)N3CCCCC3)cc2c1C [compound 76],5 to 20
14,CC1CC(C)CN(S(=O)(=O)c2ccc3[nH]c(C(N)=O)cc3c2)C1 (centres unmarked) [compound 251],5 to 20
15,Cc1c(C(=O)N2CCCC(C)C2)oc2ccc(S(=O)(=O)N3CCC(C)CC3)cc12 (centres unmarked) [compound 58],5 to 20
16,Cc1c(C(=O)N2CCCC(C)C2)oc2ccc(S(=O)(=O)N3CCOCC3)cc12 (centres unmarked) [compound 195],< 20
17,Cc1c(C(=O)NC2CCCC2)oc2ccc(S(=O)(=O)N3CCOCC3)cc12 [compound 361],< 20
18,Cc1c(C(=O)NCCc2ccccc2)[nH]c2ccc(S(=O)(=O)N3CC(C)CC(C)C3)cc12 (centres unmarked) [compound 13],< 5
19,Cc1c(C(=O)NC2CCCCC2)oc2ccc(S(=O)(=O)N3CCCCCC3)cc12 [compound 446],5 to 20
20,CC1CCN(S(=O)(=O)c2ccc3[nH]c(C(=O)N4CCN(C)CC4)cc3c2)CC1 [compound 313],5 to 20
21,CC1CC(C)CN(S(=O)(=O)c2ccc3oc(C(=O)N(C)Cc4ccccc4)cc3c2)C1 (centres unmarked) [compound 430],< 5
22,CC1CCN(S(=O)(=O)c2ccc3[nH]c(C(=O)NC4CCCC4)cc3c2)CC1 [compound 412],< 5
23,CC1CC(C)CN(S(=O)(=O)c2ccc3c(c2)cc(C(=O)N(C)C)n3C)C1 (centres unmarked) [compound 461],< 5
24,CCN(CC)C(=O)c1cc2cc(S(=O)(=O)N3CC(C)CC(C)C3)ccc2o1 (centres unmarked) [compound 31],< 5
25,Cc1c(C(=O)NC(C)C)oc2ccc(S(=O)(=O)N3CCC(C)CC3)cc12 [compound 411],< 5
26,CCCS(=O)(=O)n1c(C(=O)N2CCCCC2)cc2cc(S(=O)(=O)N3CC(C)CC(C)C3)ccc21 (centres unmarked) [compound 387],< 5

row,SMILES,IC50 [µM]
1,CC1CC(C)CN(S(=O)(=O)c2ccc3c(c2)cc(C(=O)N2CCCCC2)n3C)C1 (centres unmarked) [compound 391],< 5
2,CCN(CC)S(=O)(=O)c1ccc2oc(C(=O)NC(C)C)c(C)c2c1 [compound 399],< 20
3,CCNC(=O)c1oc2ccc(S(=O)(=O)N3CC(C)CC(C)C3)cc2c1C (centres unmarked) [compound 212],< 5
4,Cc1c(C(=O)N2CCCC(C)C2)[nH]c2ccc(S(=O)(=O)N3CC(C)CC(C)C3)cc12 (centres unmarked) [compound 227],< 5
5,Cc1c(C(=O)NC2CC2)oc2ccc(S(=O)(=O)Nc3nccs3)cc12 [compound 447],< 20
6,CCNC(=O)c1cc2cc(S(=O)(=O)N3CC(C)CC(C)C3)ccc2o1 (centres unmarked) [compound 469],< 5
7,CCN(CC)S(=O)(=O)c1ccc2oc(C(=O)NCc3ccc(F)cc3)c(C)c2c1 [compound 337],< 5
8,CCOC(=O)N1CCN(C(=O)c2oc3ccc(S(=O)(=O)N4CCCCCC4)cc3c2C)CC1 [compound 211],< 5
9,O=C(NC1CCCCC1)c1cc2cc(S(=O)(=O)N3CCCCCC3)ccc2[nH]1 [compound 296],< 20
10,CC1CC(C)CN(S(=O)(=O)c2ccc3oc(C(=O)NC4CCCC4)cc3c2)C1 (centres unmarked) [compound 122],< 5
11,CCCCN(C)C(=O)c1cc2cc(S(=O)(=O)N3CC(C)CC(C)C3)ccc2[nH]1 (centres unmarked) [compound 377],< 5
12,Cc1c(C(=O)NC2CCCC2)oc2ccc(S(=O)(=O)N3CC(C)CC(C)C3)cc12 (centres unmarked) [compound 247],< 5
13,CCN(CC)S(=O)(=O)c1ccc2oc(C(=O)N3CCCCC3C)c(C)c2c1 (centres unmarked) [compound 112],5 to 20
14,Cc1c(C(=O)N(C(C)C)C(C)C)oc2ccc(S(=O)(=O)N3CC(C)CC(C)C3)cc12 (centres unmarked) [compound 284],< 5
15,CCN(CC)S(=O)(=O)c1ccc2oc(C(=O)NC3CCC(C)CC3)c(C)c2c1 (centres unmarked) [compound 215],5 to 20
16,Cc1c(C(=O)N2CCCCCC2)oc2ccc(S(=O)(=O)N3CC(C)CC(C)C3)cc12 (centres unmarked) [compound 330],< 5
17,Cc1c(C(=O)NC(C)C2=CCCCC2)oc2ccc(S(=O)(=O)N3CCCCC3)cc12 (centres unmarked) [compound 57],5 to 20
18,O=C(NCc1ccccc1)c1cc2cc(S(=O)(=O)N3CCCCCC3)ccc2n1S(=O)(=O)c1ccccc1 [compound 398],< 5
19,CNC(=O)c1cc2cc(S(=O)(=O)N3CCC(C)CC3)ccc2o1 [compound 438],5 to 20
20,Cc1c(C(=O)NC2CC2)oc2ccc(S(=O)(=O)NCc3ccccc3)cc12 [compound 237],< 20
21,CC1CCN(S(=O)(=O)c2ccc3[nH]c(C(=O)NCCC4CCOCC4)cc3c2)CC1 [compound 8],< 5
22,Cc1c(C(=O)NCC2CCCO2)[nH]c2ccc(S(=O)(=O)N3CCC(C)CC3)cc12 (centres unmarked) [compound 355],5 to 20
23,Cc1c(C(=O)N2CCCC2)oc2ccc(S(=O)(=O)N3CCCCC3)cc12 [compound 18],5 to 20
24,COc1ccccc1CNC(=O)c1oc2ccc(S(=O)(=O)N3CCCC3)cc2c1C [compound 375],5 to 20
25,Cc1c(C(=O)N2CCCCCC2)oc2ccc(S(=O)(=O)N3CCCC(C)C3)cc12 (centres unmarked) [compound 409],< 5

# Source: patent US8211935B2, “Heterocyclic derivatives for modulation of calcium channels” (Vertex Pharmaceuticals Incorporated, priority 2004, dated 2012)
